PMC9458217, “Synthesis and Biological Evaluation of Cassane Diterpene (5α)-Vuacapane-8(14), 9(11)-Diene and of Some Related Compounds” (Molecules, 2022)
Converted amounts (≈) assume the structure as drawn. “And” between values parts separate entries of the source, which are not always exact repeats. Identical values can stand only once.

Columns and labels:
[1] = test system: RAW 264.7 monocyte/macrophage murine cells; assay: MTT cytotoxicity on RAW 264.7 cells; format: cell-based; conditions: Mus musculus, RAW264.7, RAW 264.7, MTT, 72 h of incubation; for IC20: 20% cell viability inhibition, read-out: IC20; for IC80: 80% cell viability inhibition, read-out: IC80; for IC50: read-out: IC50
Experimental: MTT is transformed to formazan in cells with metabolism capacity (viable cells), as the number of viable cells is proportional to formazan concentration; this assay was used to determine the cytotoxicity of the compounds.
In all experiments, subconfluent monolayer cells were used.
The effect of compounds on the cell viability was determined by the MTT method (Sigma, St. Louis, MO, USA). The cytotoxicity of the compounds was detected by measuring the absorbance of MTT dye staining of cells with metabolism capacity. […] Finally, after 72 h, 100 μL of MTT solution (0.5 mg/mL) in 50% of PBS and 50% of the medium was added to each well. After 1.5 h of incubation, formazan was re-suspended in 100 μL of DMSO, and each concentration was tested in triplicate.
(§1) Experimental cytotoxicity data were fitted to a sigmoidal function (y = ymax/ (x/a)^−b) by non-linear regression. […] Similar analyses were performed to obtain the IC50 of NO production (IC50 NO). All shown data are representative of at least two independent experiments performed in triplicate. All quantitative data were summarized as the means ± standard deviation (SD).

[2] = test system: LPS-stimulated RAW 264.7 murine macrophage cells; assay: Inhibition of NO production (nitrite, Griess reaction) in LPS-stimulated RAW 264.7 cells; format: cell-based; conditions: for IC50: Mus musculus, RAW264.7, 72 h; for NO inhibition: at ¾ IC50 concentration, 72 h
Experimental: The activation of the inflammatory process induces nitric oxide, NO, released as a second messenger. NO production can be used as the main indicator to assess inflammatory activity, which can be measured using nitrite (NO^2–) quantification (proportional to the released NO), determined through the Griess reaction. […] Inhibition percentages were calculated with respect to the increase between positive control (only LPS treated control cells) and negative control (untreated control cells).
The absorbance was referred to nitrite standard curve to determine the concentration of nitrite in the supernatant of each experimental sample. The percentage of NO production was determined, assigning 100% at the increase between negative control (untreated cells) and positive control (cells only treated with 10 μg/mL of LPS).
as §1

[3] = test system: HT29 human colorectal adenocarcinoma cell line; assay: MTT cytotoxicity on HT29 cells; conditions: HT-29, 72 h, HT29, MTT, 72 h
Experimental: (§2) These studies were performed using the MTT assay, based on formazan dye formation and expressed as a percentage with respect to untreated control cells (100% of cell metabolism).
(§3) The effect of compounds on the cell viability was determined by the MTT method [27] (Sigma, St. Louis, MO, USA). The cytotoxicity of the compounds was detected by measuring the absorbance of MTT dye staining of cells with metabolism capacity. […] Finally, after 72 h, 100 μL of MTT solution (0.5 mg/mL) in 50% of PBS and 50% of the medium was added to each well. After 1.5 h of incubation, formazan was re-suspended in 100 μL of DMSO, and each concentration was tested in triplicate.
(§4) Experimental cytotoxicity data were fitted to a sigmoidal function (y = ymax/ (x/a)^−b) by non-linear regression. […] All shown data are representative of at least two independent experiments performed in triplicate. All quantitative data were summarized as the means ± standard deviation (SD).

[4] = test system: HepG2 human hepatocarcinome cell-line; assay: MTT cytotoxicity on HepG2 cells; conditions: HepG2, 72 h
Experimental: as §2, §3, §4

[5] = test system: B16-F10 mouse melanoma cells; assay: MTT cytotoxicity on B16-F10 cells
Experimental: as §2, §3, §4

[6] = LPS-activated RAW 264.7, 72 h of incubation

| SMILES | IC20 [1] | IC80 [1] | IC50 [1] | IC50 [2, 6] | NO inhibition [2] | IC50 [3] | IC50 [4] | IC50 ([5]; 72 h) | IC50 ([5]; Mus musculus, B16-F10, 72 h) | IC50 NO [2, 6] |
| --- | --- | --- | --- | --- | --- | --- | --- | --- | --- | --- |
| COC(=O)c1c(O)cc2c(c1C(=O)OC)CC[C@H]1C(C)(C)CCC[C@]21C [Compound 17] | 4.95 ± 0.13 µg/mL (≈ 13.7 µM) | 11.8 ± 2.97 µg/mL (≈ 32.7 µM) | 7.49 ± 0.86 µg/mL (≈ 20.8 µM) | 4.74 ± 1.27 µg/mL (≈ 13.2 µM) | 30.52% | 5.96 ± 0.55 µg/mL (≈ 16.5 µM) | 8.15 ± 0.1 µg/mL (≈ 22.6 µM) | 5.96 ± 0.55 µg/mL and 5.97 ± 0.55 µg/mL | < 10 µg/mL |  |
| COC(=O)c1c(O)cc2c(c1C)CC[C@H]1C(C)(C)CCC[C@]21C [Compound 18] | 7.32 ± 2.53 µg/mL (≈ 23.1 µM) | 20.4 ± 0.26 µg/mL (≈ 64.4 µM) | 13.1 ± 1.51 µg/mL (≈ 41.4 µM) | 31.4 ± 4.9 µg/mL (≈ 99.1 µM) | 11.06% | 30.7 ± 0.49 µg/mL (≈ 96.9 µM) | 13.57 ± 0.12 µg/mL (≈ 42.9 µM) | 5.96 ± 0.35 µg/mL (≈ 18.8 µM) | < 10 µg/mL |  |
| Cc1c(CO)c(O)cc2c1CC[C@H]1C(C)(C)CCC[C@]21C [Compound 19] | 70.83 ± 0.28 µg/mL (≈ 246 µM) | 78.94 ± 0.28 µg/mL (≈ 274 µM) | 74.65 ± 0.17 µg/mL (≈ 259 µM) | 27.57 ± 0.2 µg/mL (≈ 95.6 µM) |  | 49 ± 0.72 µg/mL (≈ 170 µM) | 12.2 ± 1.78 µg/mL (≈ 42.4 µM) |  | 48.8 ± 2.79 µg/mL (≈ 169 µM) |  |
| CC1(C)CCC[C@]2(C)c3cc(O)c(C=O)cc3CC[C@@H]12 [Compound 23] | 5.13 ± 0.18 µg/mL (≈ 18.8 µM) | 6.8 ± 0.24 µg/mL (≈ 25 µM) | 5.87 ± 0.18 µg/mL (≈ 21.6 µM) | 3.22 ± 0.05 µg/mL (≈ 11.8 µM) | 78.48% | 5.19 ± 0.17 µg/mL (≈ 19.1 µM) | 8.36 ± 1.77 µg/mL (≈ 30.7 µM) |  | 4.33 ± 0.27 µg/mL (≈ 15.9 µM) | 3.32 ± 0.05 µg/mL (≈ 12.2 µM) |
| CC1(C)CCC[C@]2(C)c3cc(O)c(CO)cc3CC[C@@H]12 [Compound 24] | 9.09 ± 0.03 µg/mL (≈ 33.1 µM) | 20.8 ± 0.48 µg/mL (≈ 75.6 µM) | 13.94 ± 0.07 µg/mL (≈ 50.8 µM) | 15.2 ± 2.13 µg/mL (≈ 55.4 µM) | did not cause any inhibition of NO release | 17.4 ± 1.97 µg/mL (≈ 63.5 µM) | 24.2 ± 2.71 µg/mL (≈ 88.3 µM) |  | 10.51 ± 0.01 µg/mL (≈ 38.3 µM) |  |
| CC1(C)CCC[C@]2(C)c3cc4c(cc3CC[C@@H]12)CC(=O)O4 [Compound 25] | 42.6 ± 0.74 µg/mL (≈ 150 µM) | 66.33 ± 0.35 µg/mL (≈ 233 µM) | 53.92 ± 0.36 µg/mL (≈ 190 µM) | 22.58 ± 0.05 µg/mL (≈ 79.4 µM) | 72.24% | 74.3 ± 2.19 µg/mL (≈ 261 µM) | 77.97 ± 0.72 µg/mL (≈ 274 µM) |  | 74.3 ± 2.19 µg/mL (≈ 261 µM) |  |
